± gives the expanded uncertainty stated by the source.
Experiment: mn = molality of the nth substance listed, in mol/kg
Details: Liquid, Vibrating tube method

[Br-].[Li+] [lithium bromide] + CCO
Details	mass density [kg/m3]
373.16 K, 5125 kPa, m1 = 0.5972	762.2 ± 1.5
373.16 K, 9909 kPa, m1 = 1.462	822.87 ± 1.6
373.16 K, 29954 kPa, m1 = 0.2335	764.93 ± 1.6
373.16 K, 40172 kPa, m1 = 0.5972	798.56 ± 1.6
373.16 K, 49979 kPa, m1 = 0.5972	807.22 ± 1.7
373.16 K, 79993 kPa, m1 = 1.462	881.25 ± 1.8
373.16 K, 89924 kPa, m1 = 1.462	887.37 ± 1.9
373.16 K, 99892 kPa, m1 = 2.272	936.43 ± 1.9
373.17 K, 1353 kPa, m1 = 2.272	860.5 ± 1.7
373.17 K, 20097 kPa, m1 = 1.462	833.45 ± 1.7
373.17 K, 29993 kPa, m1 = 1.462	842.95 ± 1.7
373.17 K, 49993 kPa, m1 = 1.462	860.02 ± 1.8
373.17 K, 50023 kPa, m1 = 0.2335	783.79 ± 1.6
373.17 K, 59801 kPa, m1 = 0.5972	815.22 ± 1.7
373.17 K, 99791 kPa, m1 = 1.462	893.1 ± 1.9
373.18 K, 4985 kPa, m1 = 2.272	864.78 ± 1.7
373.18 K, 9782 kPa, m1 = 2.272	870.51 ± 1.8
373.19 K, 19637 kPa, m1 = 2.272	879.78 ± 1.8
373.19 K, 29927 kPa, m1 = 2.272	888.82 ± 1.8
373.19 K, 39864 kPa, m1 = 2.272	896.99 ± 1.8
373.19 K, 40176 kPa, m1 = 1.462	851.97 ± 1.7
398.11 K, 79836 kPa, m1 = 2.272	910.54 ± 1.9
398.12 K, 10085 kPa, m1 = 1.462	801.33 ± 1.6
398.12 K, 39724 kPa, m1 = 2.272	879.8 ± 1.8
398.12 K, 49958 kPa, m1 = 2.272	888.51 ± 1.8
398.12 K, 59977 kPa, m1 = 2.272	896.37 ± 1.8
398.12 K, 69928 kPa, m1 = 2.272	903.66 ± 1.9
398.13 K, 5252 kPa, m1 = 1.462	795.21 ± 1.6
398.13 K, 29993 kPa, m1 = 2.272	870.74 ± 1.8
398.13 K, 39727 kPa, m1 = 3.368	934.47 ± 1.9
398.14 K, 9704 kPa, m1 = 2.272	848.87 ± 1.7
398.14 K, 9986 kPa, m1 = 2.833	879.45 ± 1.8
398.14 K, 19987 kPa, m1 = 3.368	916.46 ± 1.8
398.14 K, 20117 kPa, m1 = 2.272	860.65 ± 1.7
398.14 K, 29928 kPa, m1 = 0.2335	744.1 ± 1.5
398.14 K, 29993 kPa, m1 = 3.368	926 ± 1.9
398.14 K, 39959 kPa, m1 = 1.462	834.18 ± 1.7
398.14 K, 40001 kPa, m1 = 0.5972	779.67 ± 1.6
398.14 K, 49956 kPa, m1 = 2.833	917.53 ± 1.9
398.14 K, 89925 kPa, m1 = 2.833	945.26 ± 1.9
398.14 K, 99863 kPa, m1 = 0.5972	827.19 ± 1.9
398.15 K, 1326 kPa, m1 = 2.833	868.98 ± 1.7
398.15 K, 1425 kPa, m1 = 0.9499	756.04 ± 1.5
398.15 K, 2012 kPa, m1 = 3.368	896.84 ± 1.8
398.15 K, 2214 kPa, m1 = 1.462	790.21 ± 1.6
398.15 K, 2451 kPa, m1 = 0.2335	705.58 ± 1.4
398.15 K, 2804 kPa, m1 = 0.5972	733.32 ± 1.5
398.15 K, 5002 kPa, m1 = 2.833	873.54 ± 1.8
398.15 K, 5024 kPa, m1 = 0.2335	709.8 ± 1.4
398.15 K, 5025 kPa, m1 = 0.9499	761.36 ± 1.5
398.15 K, 9911 kPa, m1 = 3.368	905.89 ± 1.8
398.15 K, 9986 kPa, m1 = 0.9499	768.11 ± 1.6
398.15 K, 10023 kPa, m1 = 0.2335	717.61 ± 1.5
398.15 K, 19859 kPa, m1 = 1.462	812.89 ± 1.6
398.15 K, 19923 kPa, m1 = 0.9499	780.63 ± 1.6
398.15 K, 19925 kPa, m1 = 2.833	890.37 ± 1.8
398.15 K, 29784 kPa, m1 = 0.9499	791.83 ± 1.6
398.15 K, 29946 kPa, m1 = 1.462	823.95 ± 1.7
398.15 K, 29996 kPa, m1 = 0.5972	769.06 ± 1.6
398.15 K, 39926 kPa, m1 = 0.9499	802.25 ± 1.6
398.15 K, 39941 kPa, m1 = 0.2335	754.26 ± 1.6
398.15 K, 40021 kPa, m1 = 2.833	909.38 ± 1.8
398.15 K, 49925 kPa, m1 = 1.462	843.34 ± 1.7
398.15 K, 49926 kPa, m1 = 3.368	942.62 ± 1.9
398.15 K, 49931 kPa, m1 = 0.2335	764.05 ± 1.6
398.15 K, 49993 kPa, m1 = 0.5972	789.19 ± 1.7
398.15 K, 50024 kPa, m1 = 0.9499	811.67 ± 1.7
398.15 K, 59926 kPa, m1 = 0.9499	820.12 ± 1.7
398.15 K, 59926 kPa, m1 = 2.833	925.07 ± 1.9
398.15 K, 69784 kPa, m1 = 0.9499	827.92 ± 1.8
398.15 K, 69953 kPa, m1 = 0.2335	781.36 ± 1.7
398.15 K, 69979 kPa, m1 = 0.5972	805.77 ± 1.7
398.15 K, 79787 kPa, m1 = 0.5972	813.07 ± 1.8
398.15 K, 79935 kPa, m1 = 0.9499	835.45 ± 1.8
398.15 K, 80002 kPa, m1 = 2.833	938.86 ± 1.9
398.15 K, 89921 kPa, m1 = 0.2335	795.82 ± 1.8
398.15 K, 89936 kPa, m1 = 0.9499	842.54 ± 1.8
398.15 K, 89963 kPa, m1 = 2.272	917.33 ± 1.9
398.15 K, 89994 kPa, m1 = 0.5972	820.32 ± 1.8
398.15 K, 99021 kPa, m1 = 0.9499	848.81 ± 1.9
398.15 K, 99624 kPa, m1 = 0.2335	802.67 ± 1.9
398.15 K, 99816 kPa, m1 = 1.462	879.34 ± 1.9
398.15 K, 99985 kPa, m1 = 2.833	951.65 ± 1.9
398.15 K, 100000 kPa, m1 = 3.368	976.03 ± 2
398.16 K, 5023 kPa, m1 = 3.368	900.37 ± 1.8
398.16 K, 19941 kPa, m1 = 0.5972	757.12 ± 1.5
398.16 K, 19974 kPa, m1 = 0.2335	731.71 ± 1.5
398.16 K, 29947 kPa, m1 = 2.833	900.32 ± 1.8
398.16 K, 60031 kPa, m1 = 1.462	851.51 ± 1.8
398.16 K, 60122 kPa, m1 = 3.368	950.15 ± 1.9
398.16 K, 69784 kPa, m1 = 2.833	932.03 ± 1.9
398.16 K, 69947 kPa, m1 = 1.462	859.16 ± 1.8
398.16 K, 69957 kPa, m1 = 3.368	956.94 ± 1.9
398.16 K, 79919 kPa, m1 = 3.368	963.47 ± 1.9
398.16 K, 80014 kPa, m1 = 0.2335	788.79 ± 1.8
398.16 K, 89928 kPa, m1 = 1.462	872.71 ± 1.8
398.16 K, 89993 kPa, m1 = 3.368	969.83 ± 2
398.17 K, 5071 kPa, m1 = 0.5972	736.75 ± 1.5
398.17 K, 9730 kPa, m1 = 0.5972	743.51 ± 1.5
398.17 K, 59907 kPa, m1 = 0.5972	797.77 ± 1.7
398.17 K, 59978 kPa, m1 = 0.2335	773.47 ± 1.7
398.18 K, 1833 kPa, m1 = 2.272	839.1 ± 1.7
398.18 K, 80059 kPa, m1 = 1.462	866.49 ± 1.8
398.19 K, 99619 kPa, m1 = 2.272	923.71 ± 1.9
398.22 K, 4702 kPa, m1 = 2.272	842.75 ± 1.7

Reference: the NIST ThermoML archive (doi:10.1021/je1003065)
